Values of other authors in patent US7879906B2, “GABA analogs, compositions and methods for manufacturing thereof” (Anchen Laboratories, Inc., priority 2006, dated 2011).

Tested on: mouse

Structure (SMILES) | toxicity (LD50, mouse)
O=C1CC2(CCCCC2)CN1 [gabapentin lactam] | 300 mg/kg
NCC1(CC(=O)O)CCCCC1 [gabapentin] | more than 8000 mg/kg
